Measured values from PMC9876986, “Direct cell extraction of membrane proteins for structure–function analysis” (Scientific Reports, 2023).

Biological target: T1, mouse PANX1 (pannexin1) (Mus musculus, UniProt Q9JIP4)
T1 construct: wildtype mouse PANX1, untagged, in His-tagged Salipro nanoparticles
Assay: SPR on immobilized His-Salipro-mPANX1, empty particles as reference
Assay type: binding

T1 sequence (Q9JIP4 whole entry): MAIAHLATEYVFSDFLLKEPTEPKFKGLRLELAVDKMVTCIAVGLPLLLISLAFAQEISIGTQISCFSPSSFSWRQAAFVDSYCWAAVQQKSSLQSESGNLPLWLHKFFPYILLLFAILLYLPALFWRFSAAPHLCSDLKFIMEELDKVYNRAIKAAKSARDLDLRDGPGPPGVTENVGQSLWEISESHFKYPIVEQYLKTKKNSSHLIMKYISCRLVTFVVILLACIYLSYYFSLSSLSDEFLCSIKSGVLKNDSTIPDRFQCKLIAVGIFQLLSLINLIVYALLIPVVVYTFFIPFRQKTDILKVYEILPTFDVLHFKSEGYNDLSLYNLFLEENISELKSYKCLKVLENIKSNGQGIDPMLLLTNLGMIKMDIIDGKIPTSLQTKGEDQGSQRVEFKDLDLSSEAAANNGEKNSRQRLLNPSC

- Kd: 160 µM
SMILES: CC(=O)S[C@@H]1CC2=CC(=O)CC[C@]2(C)[C@H]2CC[C@@]3(C)[C@@H](CC[C@@]34CCC(=O)O4)[C@H]12 [spironolactone]
